Read-outs that look alike come from different tables or passages of the source.

For test [1], the system named is collagen-induced platelet aggregation. The test is described as follows: Platelet aggregation-inhibitory action (collagen-induced aggregation in platelet rich plasma). The class given is cell-based. To be noted: human PRP, 37° C., read-out: Inhibition of collagen-induced platelet aggregation, IC50. The procedure:
The blood was centrifuged at 180×g for 10 minutes to separate platelet rich plasma (PRP) from the blood. Upper layer PRP was removed, and the lower layer was centrifuged at 1600×g for 10 minutes, to thereby recover the upper layer platelet poor plasma (PPP). A solution (1 μL) of compound of the present invention was added to PRP (200 μL), and the mixture was allowed to stand at 37° C. for 2 minutes. Subsequently, collagen (2 μL) was added to the resultant mixture so as to induce platelet aggregation. Percent platelet aggregation was measured using PAM-12C (SSR Engineering). Optical transmittance of PPP was regarded as an indicator of 100% aggregation. Percent platelet aggregation values of the respective compounds were determined at different concentrations. IC50 values were calculated.

The target in test [2] is T1, Cyclooxygenase-1 (COX-1) (Ovis aries, UniProt P05979).
T1 construct: purchased Cayman Chemical Company 560101 and 560121
T1 sequence (P05979 25-600): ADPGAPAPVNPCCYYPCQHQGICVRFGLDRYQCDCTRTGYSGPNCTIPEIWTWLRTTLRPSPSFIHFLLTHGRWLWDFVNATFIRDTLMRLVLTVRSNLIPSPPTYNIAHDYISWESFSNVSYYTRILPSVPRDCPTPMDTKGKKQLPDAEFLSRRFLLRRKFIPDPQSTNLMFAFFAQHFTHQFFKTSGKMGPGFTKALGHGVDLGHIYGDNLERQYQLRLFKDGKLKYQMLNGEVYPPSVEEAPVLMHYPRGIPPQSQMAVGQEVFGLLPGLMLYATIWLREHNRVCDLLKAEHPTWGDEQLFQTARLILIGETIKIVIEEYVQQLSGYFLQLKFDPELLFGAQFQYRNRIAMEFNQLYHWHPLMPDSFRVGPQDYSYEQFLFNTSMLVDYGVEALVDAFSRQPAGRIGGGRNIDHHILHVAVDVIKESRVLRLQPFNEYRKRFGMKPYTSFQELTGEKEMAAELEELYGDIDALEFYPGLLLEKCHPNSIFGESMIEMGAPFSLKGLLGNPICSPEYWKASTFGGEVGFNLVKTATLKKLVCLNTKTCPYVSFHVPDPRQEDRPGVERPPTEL
The experiment in a line: COX Inhibitor Screening Assay Kit, COX-1 (PGF2α by ELISA). The class given is biochemical. The settings on record: 50 μM compound; read-out: Inhibitory effect against COX-1 at 50 μM (% inhibition). On the procedure:
(§1) COX-1 inhibiting activity and COX-2 inhibiting activity of inventive compounds produced in some of the Examples herein were measured by use of a COX Inhibitor Screening Assay Kit (product of Cayman Chemical Company, Catalog Nos. 560101 and 560121).
(§2) Before starting the measurement, a reaction buffer, heme, arachidonic acid, SnCl2, EIA buffer, washing buffer, prostaglandin (PG) screening EIA standard, PG screening acetylcholine esterase (AchE), tracer ([…]), and PG screening EIA antiserum were prepared ready for use.
(§3) Production of PGF in the Presence of COX-1 or COX-2
A reaction mixture containing a compound of the present invention from the Examples (50 μM) and COX-1 or COX-2 was allowed to stand at 37° C. for 10 minutes. Arachidonic acid (10 μL) was added thereto, and the resultant mixture was further allowed to stand at 37° C. for 2 minutes. 1N-Hydrochloric acid (50 μL) was added to the reaction mixture, to thereby stop the reaction. SnCl2 solution (100 μL) was added thereto, and the resultant mixture was allowed to stand at room temperature for 5 minutes.
(§4) (2) Quantitative Determination of PGF2α Using ELISA
Antiserum (rabbit anti-PGF2α antibody, 50 μL) was added to the wells of a 96-well plate that had been coated with mouse anti-rabbit IgG. A solution of PGF2α-containing mixture obtained above (2000-fold dilution, 50 μL) and an AchE tracer (50 μL) were sequentially added to each well, and the mixture was allowed to stand at room temperature for 18 hours. The wells were washed 5 times with the washing buffer to remove an excessive AchE tracer, and an Ellman reagent (200 μL) was added. After keeping the plate in a dark room for 60 minutes, absorbance was measured at 405 nm.
(3) Calculation of Inhibitory Activity of the Compounds of the Present Invention
(§5) A calibration curve was obtained by use of a PG screening EIA standard, and the production amount of PGF2α was determined from the absorbance Percent inhibition against COX-1 or COX-2 in the presence of a 50 μM of the compound was calculated.

The test system of test [3] is collagen-induced platelet aggregation. To be noted: background art, cited from earlier work.
The target in test [4] is T2, Cyclooxygenase-2 (COX-2) (Homo sapiens, UniProt P35354).
T2 construct: purchased Cayman Chemical Company 560101 and 560121
T2 sequence (P35354 18-604): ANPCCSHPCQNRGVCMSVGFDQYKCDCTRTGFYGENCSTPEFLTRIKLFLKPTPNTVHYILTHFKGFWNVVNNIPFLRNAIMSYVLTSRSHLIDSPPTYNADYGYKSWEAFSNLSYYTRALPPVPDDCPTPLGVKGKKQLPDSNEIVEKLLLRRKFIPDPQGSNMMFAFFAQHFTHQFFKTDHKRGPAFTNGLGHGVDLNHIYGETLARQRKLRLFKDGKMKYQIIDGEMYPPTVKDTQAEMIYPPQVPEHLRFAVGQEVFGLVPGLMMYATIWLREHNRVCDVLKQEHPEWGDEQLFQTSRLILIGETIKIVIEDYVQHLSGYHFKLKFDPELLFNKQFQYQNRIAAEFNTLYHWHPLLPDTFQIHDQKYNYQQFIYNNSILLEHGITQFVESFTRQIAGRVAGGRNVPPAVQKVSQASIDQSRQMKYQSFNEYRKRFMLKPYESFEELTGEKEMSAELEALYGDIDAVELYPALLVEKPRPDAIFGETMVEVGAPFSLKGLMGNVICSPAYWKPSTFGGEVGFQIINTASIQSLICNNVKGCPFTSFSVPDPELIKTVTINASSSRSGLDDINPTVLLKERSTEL
The test is described as follows: COX Inhibitor Screening Assay Kit, COX-2 (PGF2α by ELISA). The class given is biochemical. To be noted: 50 μM compound; read-out: Inhibitory effect against COX-2 at 50 μM (% inhibition). The procedure: as §1, §2, §3
A reaction mixture containing a compound of the present invention from the Examples (50 μM) and COX-1 or COX-2 was allowed to stand at 37° C. for 10 minutes. Arachidonic acid (10 μL) was added thereto, and the resultant mixture was further allowed to stand at 37° C. for 2 minutes. […]
as §4
Antiserum (rabbit anti-PGF2α antibody, 50 μL) was added to the wells of a 96-well plate that had been coated with mouse anti-rabbit IgG. […] After keeping the plate in a dark room for 60 minutes, absorbance was measured at 405 nm. […]
as §5

With `Cc1ccc(-c2cc(C(=O)N3CCC(F)CC3)nn2-c2cccnc2)nc1` [Example 33], in test [1], the IC50 amounted to 31.3 nM. The inhibition at 50 µM in test [2] was -16.7%.
The matching figures for `Cc1ccc(-c2cc(C(=O)N3CCN(C)CC3)nn2-c2cccnc2)nc1` [Example 67, 1-[5-(5-Methylpyridin-2-yl)-1-(pyridin-3-yl)-1H-pyrazole-3-carbonyl]-4-methylpiperazine]: 190 nM and -21%.
For `NC(=O)c1ccc(-c2cc(C(=O)N3CCC(F)(F)CC3)nn2-c2cccnc2)nc1` [Example 13, 1-[5-(5-Carbamoyl-2-pyridyl)-1-(3-pyridyl)-1H-pyrazole-3-carbonyl]-4,4-difluoropiperidine], the concentration for half-maximal inhibition (IC50) in test [1] came out at 130 nM. Besides, the inhibition at 50 µM in test [2] was 10.3%.
`CS(=O)(=O)c1ccc(-c2cc(C#N)nn2-c2ccc(F)cc2)cc1` [Compound (A)]: the IC50 in test [3] (read-out: IC50 value against collagen-induced platelet aggregation) is 5300 nM.
With `O=C(c1cc(-c2ccc(Cl)cn2)n(-c2cccnc2)n1)N1CCC(F)CC1` [Example 29, 1-[5-(5-Chloro-2-pyridyl)-1-(3-pyridyl)-1H-pyrazole-3-carbonyl]-4-fluoropiperidine], in test [1], the IC50 is 95 nM. The inhibition at 50 µM in test [4] was 5.3%; in test [2], -1.4%.
Consider `C=C1CCN(C(=O)c2cc(-c3cn(C)cn3)n(-c3cccnc3)n2)CC1` [Example 73, 1-[5-(1-Methyl-1H-imidazol-4-yl)-1-(pyridin-3-yl)-1H-pyrazole-3-carbonyl]-4-methylenepiperidine], for which, in test [1], the IC50 came out at 78 nM. Also, the inhibition at 50 µM in test [2] came out at 11.9%.
Taken in the same sequence, the figures for `Cc1ccc(-c2cc(C(=O)N3CCN(C)C(=O)C3)nn2-c2cccnc2)nc1` [Example 71, 1-[5-(5-Methylpyridin-2-yl)-1-(pyridin-3-yl)-1H-pyrazole-3-carbonyl]-4-methyl-3-oxopiperazine] were 270 nM and 18.1%.
`COC1CCN(C(=O)c2cc(-c3ccc(C)cn3)n(-c3cccnc3)n2)CC1` [Example 30, 1-[5-(5-Methyl-2-pyridyl)-1-(3-pyridyl)-1H-pyrazole-3-carbonyl]-4-methoxypiperidine]: in test [1], the IC50 turned out to be 120 nM. In test [2], the inhibition at 50 µM was -21.1%.
As for `Cn1cnc(-c2cc(C(=O)N3CCC(F)(F)CC3)nn2-c2cccnc2)c1` [Example 70, 1-[5-(1-Methyl-1H-imidazol-4-yl)-1-(pyridin-3-yl)-1H-pyrazole-3-carbonyl]-4,4-difluoropiperidine], the IC50 in test [1] amounted to 280 nM. In addition, the inhibition at 50 µM in test [2] was determined as 5.5%.
The matching figures for `Cc1ccc(-c2cc(C(=O)N3CCC(F)(F)CC3)nn2-c2cccnc2)nc1` [Example 15, 1-[5-(5-Methyl-2-pyridyl)-1-(3-pyridyl)-1H-pyrazole-3-carbonyl]-4,4-difluoropiperidine]: 9 nM and 8.1%.
Consider `O=C(c1cc(-c2ccc(CO)cn2)n(-c2cccnc2)n1)N1CCC(F)(F)CC1` [Example 65, 1-[5-(5-Hydroxymethylpyridin-2-yl)-1-(pyridin-3-yl)-1H-pyrazole-3-carbonyl]-4,4-difluoropiperidine], for which the IC50 in test [1] was determined as 130 nM. Further, the inhibition at 50 µM in test [2] was determined as 5.9%.
Taken in the same sequence, the figures for `Cc1ccc(-c2cc(C(=O)N3CCCCN3)nn2-c2cccnc2)nc1` [Example 57, 1-[5-(5-Methylpyridin-2-yl)-1-(pyridin-3-yl)-1H-pyrazole-3-carbonyl]hexahydropyridazine] were 140 nM and -17.4%.
As for `COc1ccc(-c2cc(C(F)F)nn2-c2ccc(S(N)(=O)=O)cc2)cc1F` [compound (B)], in test [3], the “platelet aggregation inhibitory activity compared with inhibitory activity against COX-2” value is listed as “not so potent”.

As a reminder, the IC50 is the concentration that gives 50% inhibition. What is called inhibition is the relative decrease from the control value, in per cent.

Source of the values: patent US20080064682A1, “Pyrazole Derivatives” (DAIICHI PHARMACEUTICAL CO., LTD., priority 2004, published 2008).
